Assay results taken from a compilation of properties of binary mixtures (doi:10.1016/j.molliq.2010.03.018).

Test: xn = mol fraction of the nth substance listed
Conditions: 101 kPa

COCC(C)O (stereo not drawn) + CCCC[n+]1ccn(C)c1.F[P-](F)(F)(F)(F)F
speed of sound [m/s]
Conditions	x1 = 0.0426	x1 = 0.126	x1 = 0.2396	x1 = 0.4116	x1 = 0.5071	x1 = 0.6847	x1 = 0.8536	x1 = 0.9447
288.15 K	1464.5	1458.3	1449.3	–	1420.4	1390.4	–	1322.3
298.15 K	1439.7	1433.7	1424.6	–	1393.6	1360.9	1316.9	1286.9
308.15 K	1416.2	–	1400.6	1381.5	1367.3	1331.8	–	1251.5

COCCOCCO + CCCC[n+]1ccn(C)c1.F[P-](F)(F)(F)(F)F
speed of sound [m/s]
Conditions	x1 = 0.1008	x1 = 0.2217	x1 = 0.3398	x1 = 0.4582	x1 = 0.519	x1 = 0.6876	x1 = 0.8005	x1 = 0.8758	x1 = 0.9136
288.15 K	–	1469	1473	1478.1	1480.6	1484.3	–	–	1474.1
298.15 K	1443.7	–	1448	1452.2	–	1455.5	1451.5	1445.7	1441.7
308.15 K	1420.3	1420.8	1423.5	1426.6	1427.8	–	–	1414.2	1409.4

CCOCC(C)O (stereo not drawn) + CCCC[n+]1ccn(C)c1.F[P-](F)(F)(F)(F)F
speed of sound [m/s]
Conditions	x1 = 0.0532	x1 = 0.172	x1 = 0.255	x1 = 0.3298	x1 = 0.5031	x1 = 0.6555	x1 = 0.8423	x1 = 0.9	x1 = 0.9474
288.15 K	1462	1449.6	1437.8	–	1390.7	–	–	–	–
298.15 K	1437	1424.7	1412.6	1399.7	1363.1	1325.5	–	1260.4	1247.7
308.15 K	1414.1	1400.1	–	1374.8	1336.2	1296	1242.1	1225.4	–
